Assay results reported in patent US11617758B2, “Emulsion formulations” (Marius Pharmaceuticals LLC, priority 2013, dated 2023).
Converted amounts (≈) assume the structure as drawn. Like-named read-outs stand apart in the source and are kept apart here.

What was measured:
[1] = TU solubility in various solubilizers; conditions: testosterone undecanoate dissolved in the named vehicle
[2] = 200 mg oral twice daily, cited from earlier work
[3] = cited from earlier work
[4] = cited from earlier work; remark: listed apart in the source
plasma lipids = conditions: interesterified with margarine, mild hypercholesteremia; cited from earlier work
[5] = tested on: absorption of cholesterol; conditions: 1 g ingested, meal containing 500 mg of cholesterol; cited from earlier work

CCCCC/C=C\C/C=C\CCCCCCCC(=O)OCC [Ethyl linoleate]
TU Solubility (mg/g) at 37 C. [1]: 230 mg/g

CCCCCCCC/C=C\CCCCCCCC(=O)OCC [Crodamol EO (ethyl oleate), ethyl oleate]
TU Solubility (mg/g) at 37 C. [1]: 221 mg/g

Cc1c(C)c2c(c(C)c1O)CCC(C)(CCCC(C)CCCC(C)CCCC(C)C)O2 (racemic) [dl-alpha-tocopherol]
TU Solubility (mg/g) at 37 C. [1]: 527 mg/g

CN1CCCC1=O [N-methyl pyrolidone]
TU Solubility (mg/g) at 37 C. [1]: >500 mg/g

C[C@]12CC[C@H]3[C@@H](CCC4=CC(=O)CC[C@@]43C)[C@@H]1CC[C@@H]2O [micronized testosterone, testosterone]
time of total serum testosterone within the normal range ([2]; two doses): greater than 12 hours | time at desired level of serum testosterone for each peak [2]: about 4 hours

CCCCCC[C@@H](O)C/C=C\CCCCCCCC(=O)O [Ricinoleic acid]
TU Solubility (mg/g) at 37 C. [1]: 244 mg/g

C[C@]12CC[C@H]3[C@@H](CCC4=CC(=O)CC[C@@]43C)[C@@H]1CC[C@@H]2O [testosterone]
oral bioavailability ([3]; dosed as a suspension in oil): 1% | circulating fraction bound to sex hormone binding globulin and albumin ([3]; in vivo): > 98% | plasma half-life ([3]; in vivo): 10 to 30 min

CCCCCCCC/C=C\CCCCCCCC(=O)OCC(COC(=O)CCCCCCC/C=C\CCCCCCCC)OC(=O)CCCCCCC/C=C\CCCCCCCC [Glyceryl trioleate (Capmul GTO), Glyceryl trioleate]
TU Solubility (mg/g) at 37 C. [1]: 154 mg/g

CCCCCCCC/C=C\CCCCCCCC(=O)O [Oleic acid]
TU Solubility (mg/g) at 37 C. [1]: 405 mg/g

CCCCCCCCCCCCCC(=O)OC(C)C [Crodamol IPM (isopropyl myristate), isopropyl myristate]
TU Solubility (mg/g) at 37 C. [1]: 295 mg/g

CCCCC/C=C\C/C=C\CCCCCCCC(=O)O [Linoleic acid]
TU Solubility (mg/g) at 37 C. [1]: 391 mg/g

CCCCCCCCCCC(=O)O[C@H]1CC[C@H]2[C@@H]3CCC4=CC(=O)CC[C@]4(C)[C@H]3CC[C@]12C [TU, testosterone undecanoate]
oral bioavailability ([3]; dosed with normal fat meal (30% calories from fat), solution of TU in oleic acid): about 7% | fraction absorbed via the intestinal lymphatic system ([3]; in vivo): More than 80%

CC(C)CCC[C@@H](C)[C@H]1CC[C@H]2[C@@H]3CC=C4C[C@@H](O)CC[C@]4(C)[C@H]3CC[C@]12C [Cholesterol]
water solubility [4]: ~0.01 µg/mL (≈ 0.0259 µM)

CC[C@H](CC[C@@H](C)[C@H]1CC[C@H]2[C@@H]3CC[C@H]4C[C@@H](O)CC[C@]4(C)[C@H]3CC[C@]12C)C(C)C [sitostanol]
mean 1-year reduction in plasma cholesterol (plasma lipids): 10.2%

CC[C@H](CC[C@@H](C)[C@H]1CC[C@H]2[C@@H]3CC=C4C[C@@H](O)CC[C@]4(C)[C@H]3CC[C@]12C)C(C)C [ß-sitosterol]
reduction of absorption of cholesterol [5]: 42%

CCOCCOCCO [Transcutol HP, diethylene glycol monoethyl ether]
TU Solubility (mg/g) at 37 C. [1]: 180 mg/g

CC/C=C\C/C=C\C/C=C\CCCCCCCC(=O)O [Linolenic acid]
TU Solubility (mg/g) at 37 C. [1]: 162 mg/g

CCCCCCCCCCCCCCCC(=O)OC(C)C [Crodamol IPP (isopropyl palmitate), isopropyl palmitate]
TU Solubility (mg/g) at 37 C. [1]: 215 mg/g
